{"source": "patent US20210340526A1", "about": "“NOVEL METHOD FOR TRANSDUCING PROTEIN-PROTEIN INTERACTIONS” (ETH ZÜRICH, priority 2018, published 2021)", "key": {"EF1α promoter": {"test_system": "EF1α promoter", "assay": "iRFP expression from constitutive promoter under stimulation, HEK cells", "format": "cell-based", "conditions": "1 μM of procaterol or 2 μM of epinephrine versus DMEM without ligand", "protocol": "(§1) (a) iRFP fluorescence of HEK cells transfected with the plasmid expressing iRFP from the CMV promoter (white bar) or from the EF1α promoter (black bars). The reporter expression in DMEM without any ligand or in the presence of 1 μM of procaterol or 2 μM of epinephrine is shown as indicated. The bar charts display iRFP level normalized to the frequency of the transfection marker Citrine-positive cells (rel. u.) as mean±SD of independent biological triplicates. (b) Activity of the NarX/NarL expressed from CMV or EF1a promoters. Every transfection contains NarL-regulated mCerulean fluorescent protein reporter and plasmids expressing NarL and NarX from CMV, EF1α or EF1α-V1 promoters, as indicated in the chart.\n(§2) For any synthetic signalling system, it is important to avoid non-specific changes to the signalling readout. In the system of the invention, the components are expressed from constitutive promoters. However, these promoters are in fact controlled by highly-expressed transcription factors such as Sp1, and there is always a risk that these factors are directly affected by external stimuli via unrelated endogenous pathways. This would result in the change of constitutive expression, and apparent change in the signalling readout that is unrelated to the studied effect and is artefactual. To eliminate these confounding factors, the inventors examined a number of constitutive promoters for their robustness under various stimulation conditions and compared the expression of iRFP from the CMV and EF1α promoters in the presence of different compounds often used to induce cell signalling (Epinephrine and procaterol)."}, "CMV promoter": {"test_system": "CMV promoter", "assay": "iRFP expression from constitutive promoter under stimulation, HEK cells", "format": "cell-based", "conditions": "1 μM of procaterol or 2 μM of epinephrine versus DMEM without ligand", "protocol": "as §1, §2"}, "NarX/NarL system": {"test_system": "NarX/NarL system", "assay": "control: effect of ligand on NarX/NarL signalling in HEK cells", "format": "cell-based", "conditions": "100 nM; HEK cells with NarX or NarX^379to598, NarL and NarL-activated reporter", "protocol": "To find out if NarX domains are capable of transducing this interaction (FIG. 3a), the complementing histidine and asparagine NarX mutants described above were fused at their N-terminus to the FKBP (FK) and the FRB^T2098L (FR) proteins, respectively, resulting in the fusions FK::NarX^379to598H399Q (FK::H^mut) and FR::NarX^379to598N509A (FR::N^mut), and the inverse pair FR::H^mut and FK::N^mut. […]\nThe cells were prepared for FACS analysis 48 h after transfection by removing the medium and incubating the cells with 200 μl StemPro™ Accutase™ Cell Dissociation Reagent (Gibco, cat #A11105-01) at 37° C. for 5 minutes. […] The prepared samples were measured using a BD LSR Fortessa II Cell Analyzer with a combination of excitation and emission that minimizes the crosstalk between different fluorescent reporters. Cerulean was measured with a 445 nm laser and a 473/10 nm emission filter, mCherry with a 561 nm excitation laser coupled to a 600 nm longpass filter and 610/20 emission filter. The Cerulean and the mCherry were measured, respectively, at PMT voltage of 330 and 310 in all the experiments. […]"}, "GPCR ADRB2-AVPR2": {"target": "T1, GPCR ADRB2-AVPR2 (Homo sapiens, UniProt P07550, E27Q/G16R)", "T1 construct": "expressed in transfected cells; host or cells: HEK293", "assay": "two-component (NarX/NarL) reporter assay of GPCR/beta-arrestin interaction, pair ADRB2-AVPR2::H^mut and beta-arrestin::N^mut, in HEK293 cells", "format": "cell-based"}, "[1]": {"target": "ADRB2^1to341::AVPR2^343to371::NarX^379to598 H399Q (UniProt P07550)", "assay": "cell-based or functional assay"}, "FKBP and FRB^T2098L": {"target": "FKBP and FRB^T2098L (Homo sapiens, UniProt P42345+P62942, T2098L)", "sequence (P62942 whole entry, the tested form may be a part)": "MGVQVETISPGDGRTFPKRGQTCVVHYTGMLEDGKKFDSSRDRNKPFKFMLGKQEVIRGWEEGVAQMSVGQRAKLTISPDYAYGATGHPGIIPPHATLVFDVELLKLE", "sequence (P42345 2012-2144 T2098L limits assumed)": "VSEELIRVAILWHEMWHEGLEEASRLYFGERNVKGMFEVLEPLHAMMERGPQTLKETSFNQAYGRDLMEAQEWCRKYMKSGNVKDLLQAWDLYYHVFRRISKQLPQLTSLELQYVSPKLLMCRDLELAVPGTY", "assay": "two-component (NarX/NarL) reporter assay of ligand-induced FKBP/FRB heterodimerization in HEK293 cells", "format": "cell-based", "conditions": "pair FR::H^mut and FK::N^mut, NarL and NarL-activated mCerulean reporter, HEK293, Hill function fit of dose-response; read-out: EC50 in the context of the assay", "from_the_text": "To enable bona fide signalling, the dimerization of the NarX domains should be preferably controlled by an external stimulus. Inducible protein-protein interaction is a common signalling mechanism both in the cytoplasm and across the membrane. A well characterized ligand-induced heterodimerization takes place between the proteins FK506-binding protein 12 (FKBP) and FKBP12-rapamycin binding domain (FRB) mutant FRB^T2098L in the presence of the small molecule A/C heterodimerize (a rapamycin analog Cl 6-(S)-7-methylindolerapamycin, known also as AP21967).\nTo find out if NarX domains are capable of transducing this interaction (FIG. 3a), the complementing histidine and asparagine NarX mutants described above were fused at their N-terminus to the FKBP (FK) and the FRB^T2098L (FR) proteins, respectively, resulting in the fusions FK::NarX^379to598H399Q (FK::H^mut) and FR::NarX^379to598N509A (FR::N^mut), and the inverse pair FR::H^mut and FK::N^mut. […] Next, the inventors probed the ligand-induced signalling in a fashion similar to the one used for SynZip1-SynZip2 experiments, expressing different fusion variants and control constructs in HEK293 cells, in the presence of the response regulator NarL and NarL-activated reporter construct, this time with and without the ligand (FIG. 3b, FIG. 8). As expected, full length wild type NarX was constitutively active. […]"}}, "note": "pEC50: −log10 of the molar value.", "data": [{"compound": "CNC[C@H](O)c1ccc(O)c(O)c1", "note": "[epinephrine]", "values": [{"measurement": "activity of the EF1α promoter (iRFP expression)", "setting": "EF1α promoter", "value": "not affected"}, {"measurement": "activity of the CMV promoter (iRFP expression)", "setting": "CMV promoter", "value": "induced by a factor of two"}]}, {"compound": "CCC(NC(C)C)C(O)c1ccc(O)c2[nH]c(=O)ccc12", "note": "(stereo not drawn) [procaterol]", "values": [{"measurement": "activity of the EF1α promoter (iRFP expression)", "setting": "EF1α promoter", "value": "not affected"}, {"measurement": "activity of the CMV promoter (iRFP expression)", "setting": "CMV promoter", "value": "induced by a factor of two"}, {"measurement": "effect on signalling via the wild-type NarX/NarL system", "setting": "NarX/NarL system", "value": "did not affect"}, {"measurement": "pEC50", "setting": "GPCR ADRB2-AVPR2; ADRB2-AVPR2::H^mut and beta-arrestin::N^mut, NarL-regulated mCerulean reporter, HEK293, read-out: EC50 from the dose-response curves", "value": 8.30}, {"measurement": "induction dynamic range of procaterol-triggered signalling", "setting": "GPCR ADRB2-AVPR2; complementary NarX mutants fused to the GPCR receptor and beta-arrestin, with versus without procaterol", "value": "above 3 orders of magnitude"}, {"measurement": "maximum response of downstream gene expression", "setting": "GPCR ADRB2-AVPR2; saturating doses, full agonists", "value": "reach the same maximum response"}]}, {"compound": "ARRB2::NarX^379to598 N509A (from UniProt P32121 1-409)", "values": [{"measurement": "EC50 of the small-molecule agonist isoproterenol for reporter induction", "setting": "[1]", "value": 30, "unit": "nM"}, {"measurement": "EC50 of the small-molecule agonist procaterol for reporter induction", "setting": "[1]", "value": 5, "unit": "nM"}, {"measurement": "EC50 of the small-molecule partial agonist clenbuterol for reporter induction", "setting": "[1]", "value": 14, "unit": "nM"}, {"measurement": "IC50 of the small-molecule antagonist propranolol in the presence of procaterol (reporter)", "setting": "[1]", "value": 2, "unit": "nM"}, {"measurement": "reporter expression with the partial agonist clenbuterol against the full agonists", "setting": "[1]", "value": 3.5, "unit": "times lower"}]}, {"compound": "Cl 6-(S)-7-methylindolerapamycin [A/C]", "values": [{"measurement": "effect on signalling via the wild-type NarX/NarL system", "setting": "NarX/NarL system", "value": "did not affect"}, {"measurement": "pEC50", "setting": "FKBP and FRB^T2098L", "value": 8.89}]}]}
